Where a name gives a salt, the structure may show the parent alone. Read-outs that look alike come from different tables or passages of the source.
How the values were obtained:
[1] = molecular target: nicotinic receptors containing the α4β2 subunit (Rattus norvegicus, UniProt P09483+P12390); experiment: Affinity for nicotinic receptors containing the α4β2 subunit, [3H]-cytisine binding to rat brain membranes; conditions: read-out: Percentage of inhibition of the specific binding of [3H]-cytisine at a dose of 1 μM, for the α4β2 subunit
Procedure: The compounds of the invention were also studied as regards their affinity for nicotinic receptors containing the α4β2 subunit according to the methods described by Anderson and Arneric, Eur. J. Pharmacol (1994), 253, 261, and by Hall et al., Brain Res. (1993), 600, 127.
Male Sprague Dawley rats weighing 150 to 200 g are decapitated and the entire brain is removed quickly, homogenized in 15 volumes of 0.32 M sucrose solution at 4° C. and then centrifuged at 1000×g for 10 min. The pellet is discarded and the supernatant is centrifuged at 20 000×g for 20 min at 4° C. The pellet is recovered and homogenized using a Polytron™ mill in 15 volumes of double-distilled water at 4° C., followed by centrifugation at 8000×g for 20 min. The pellet is discarded and the supernatant and the buffy coat are centrifuged at 40 000×g for 20 min, the pellet is recovered, resuspended in 15 ml of double-distilled water and centrifuged again at 40 000×g, before being stored at −80° C.
On the day of the experiment, the tissue is thawed slowly and suspended in 3 volumes of buffer. 150 μl of this membrane suspension are incubated at 4° C. for 120 min in the presence of 100 μl of 1 nM [^3H]-cytisine in a final volume of 500 μl of buffer, in the presence or absence of test compound. The reaction is stopped by filtration on Whatman GF/B™ filters pretreated with polyethyleneimine, the filters are rinsed with 2×5 ml of buffer at 4° C. and the radioactivity retained on the filter is measured by liquid scintigraphy. The non-specific binding is determined in the presence of 10 μM (−)-nicotine; the non-specific binding represents […] of the total binding recovered on the filter. For each concentration of test compound, the percentage of inhibition of the specific binding of [^3H]-cytisine is determined, at doses of 1 μM and 10 μM. For the most affine compounds of the invention, the IC50 value is calculated, which is the concentration of compound that inhibits the specific binding by 50%.

[2] = molecular target: nicotinic receptors containing the α7 subunit (Rattus norvegicus, UniProt Q05941); experiment: biochemical; type: binding
[3] = compound at 1 μM, 1 nM [3H]-cytisine, rat brain membranes

Chain of nicotinic receptors containing the α4β2 subunit (P09483 31-630): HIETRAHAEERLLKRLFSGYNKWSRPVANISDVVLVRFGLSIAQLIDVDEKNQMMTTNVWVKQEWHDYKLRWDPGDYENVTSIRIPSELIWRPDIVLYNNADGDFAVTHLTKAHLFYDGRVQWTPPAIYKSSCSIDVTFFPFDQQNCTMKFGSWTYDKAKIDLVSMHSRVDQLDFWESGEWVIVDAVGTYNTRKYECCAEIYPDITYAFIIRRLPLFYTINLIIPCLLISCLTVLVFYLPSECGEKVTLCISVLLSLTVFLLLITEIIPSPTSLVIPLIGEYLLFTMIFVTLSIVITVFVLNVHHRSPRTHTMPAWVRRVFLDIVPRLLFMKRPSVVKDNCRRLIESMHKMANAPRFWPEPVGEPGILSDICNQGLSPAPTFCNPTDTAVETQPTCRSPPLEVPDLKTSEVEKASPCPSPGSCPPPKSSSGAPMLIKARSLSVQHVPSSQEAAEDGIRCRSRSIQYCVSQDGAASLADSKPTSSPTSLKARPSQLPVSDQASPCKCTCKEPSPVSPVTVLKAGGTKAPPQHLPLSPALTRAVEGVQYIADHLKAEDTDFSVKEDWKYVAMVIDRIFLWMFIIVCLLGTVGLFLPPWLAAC
Chain of nicotinic receptors containing the α4β2 subunit (P12390 25-500): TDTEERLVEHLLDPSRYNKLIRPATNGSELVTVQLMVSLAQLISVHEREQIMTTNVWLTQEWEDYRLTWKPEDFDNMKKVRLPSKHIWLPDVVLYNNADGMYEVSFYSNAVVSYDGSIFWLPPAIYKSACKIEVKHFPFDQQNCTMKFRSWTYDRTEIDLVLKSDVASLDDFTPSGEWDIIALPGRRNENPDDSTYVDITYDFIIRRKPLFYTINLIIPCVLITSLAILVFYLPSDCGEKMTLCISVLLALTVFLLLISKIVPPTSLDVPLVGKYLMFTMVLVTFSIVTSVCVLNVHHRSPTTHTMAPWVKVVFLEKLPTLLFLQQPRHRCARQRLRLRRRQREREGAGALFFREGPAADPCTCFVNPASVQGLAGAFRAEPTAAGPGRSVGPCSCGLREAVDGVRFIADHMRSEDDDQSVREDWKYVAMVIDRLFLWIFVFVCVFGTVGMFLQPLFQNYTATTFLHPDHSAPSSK
Chain of nicotinic receptors containing the α7 subunit (Q05941 23-502): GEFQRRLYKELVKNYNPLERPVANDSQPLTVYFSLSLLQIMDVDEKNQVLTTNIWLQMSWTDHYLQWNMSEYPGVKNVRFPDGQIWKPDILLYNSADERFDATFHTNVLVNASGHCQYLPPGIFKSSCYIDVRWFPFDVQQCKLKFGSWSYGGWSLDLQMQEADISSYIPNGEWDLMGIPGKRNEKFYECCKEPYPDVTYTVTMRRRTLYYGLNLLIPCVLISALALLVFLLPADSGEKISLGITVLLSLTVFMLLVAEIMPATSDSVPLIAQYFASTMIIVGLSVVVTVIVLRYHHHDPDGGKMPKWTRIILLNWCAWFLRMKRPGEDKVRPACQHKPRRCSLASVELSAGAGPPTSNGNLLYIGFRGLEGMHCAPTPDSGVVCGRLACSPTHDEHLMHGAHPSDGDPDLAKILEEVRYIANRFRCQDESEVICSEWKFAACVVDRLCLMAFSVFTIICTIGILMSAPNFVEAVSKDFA

Row | SMILES | melting point [°C] | further results
1 | C1=CC2(c3ccc(-c4cscn4)nc3)CCN(C1)C2 (stereo not drawn) (as salt: HBr) | 272 to 274 | –
2 | C1=CC2(c3ccc(-c4cc[nH]n4)nc3)CCN(C1)C2 (stereo not drawn) (as salt: HBr) | 273 to 275 | –
3 | CC(C)Cn1cc(-c2ccc(C34C=CCN(CC3)C4)cn2)cn1 (stereo not drawn) (as salt: HBr) | 104 to 106 | –
4 | CCCn1cc(-c2ccc(C34C=CCN(CC3)C4)cn2)cn1 (stereo not drawn) (as salt: HBr) | 190 to 192 | –
5 | Cn1cc(-c2ccc(C34CCCN(CC3)C4)cn2)cn1 (racemic) | 138 to 140 | –
6 | C1=CC2(c3ccc(-c4ncc[nH]4)nc3)CCN(C1)C2 (single isomer, unassigned) (as salt: HBr) [Compound 14] | 234 to 236 | –
7 | C1=CC2(c3ccc(-c4c[nH]cn4)nc3)CCN(C1)C2 (single isomer, unassigned) [Compound 9] | – | inhibition at 1 µM [1, 3]: 24%; IC50 [2]: 0.3 µM
8 | C1=CC2(c3ccc(-n4ccnc4)nc3)CCN(C1)C2 (single isomer, unassigned) [Compound 11] | – | inhibition at 1 µM [1]: 36%; IC50 ([2]; read-out: IC50 α7): 0.083 µM
9 | C1=CC2(c3ccc(-c4ncc[nH]4)nc3)CCN(C1)C2 (single isomer, unassigned) [Compound 14] | – | inhibition at 1 µM [1, 3]: 45%; IC50 [2]: 0.099 µM
